# Key:
# Gaa KO mice = assay: Muscle biomarkers LAMP1, LC3, dysferlin in Gaa KO mice (staining, western blot); format: in vivo, mouse
# Procedure: The therapeutic effects of ATB200 and miglustat were evaluated and compared against those of Alglucosidase alfa in Gaa KO mice. For the study, male Gaa KO (3-to 4-month old) and age-matched wild-type (WT) mice were used. Alglucosidase alfa was administered via bolus tail vein intravenous (IV) injection. In the co-administration regimen, miglustat was administered via oral gavage (PO) 30 minutes prior to the IV injection of ATB200. Treatment was given biweekly. Treated mice were sacrificed after 14 days from the last administration and various tissues were collected for further analysis. Table 11 summarizes the study design:
# Tissue samples were also analyzed for biomarker changes following the methods discussed in: Khanna R, et al. (2012), “The pharmacological chaperone AT2220 increases recombinant human acid α-glucosidase uptake and glycogen reduction in a mouse model of Pompe disease,” Plos One 7(7): e40776; and Khanna, R et al. (2014), “The Pharmacological Chaperone AT2220 Increases the Specific Activity and Lysosomal Delivery of Mutant Acid a-Glucosidase, and Promotes Glycogen Reduction in a Transgenic Mouse Model of Pompe Disease,” PLOS ONE 9(7): e102092.
# Similarly, intense LC3-positive aggregates in the muscle fibers of untreated Gaa KO mice signify the presence of autophagic zones and autophagy build-up. […] A similar observation was made when the expression of LC3 was assessed using western blot. […] In comparison, the effect of alglucosidase alfa on autophagy was modest.
# Dysferlin, a protein involved in membrane repair and whose deficiency/mistrafficking is associated with a number of muscular dystrophies, was also assessed.
# [1] = system: adult subjects with late-onset Pompe disease (LOPD); assay: Study ATB200-03 (PROPEL): PROMIS-Physical Function; format: in vivo, human; conditions: for CHG to Week 52 in PROMIS-Physical Function total score, LS Mean / CHG to Week 52 in PROMIS-Physical Function total score, LS Mean Treatment Difference: MMRM; for CHG to Week 52 in PROMIS-Physical Function total score, LS Mean: actual time point of assessments; for PROMIS-Physical Function Short Form 20a total score CHG, LS means (SE) / PROMIS-Physical Function Short Form 20a total score CHG, Difference of LS means (SE) (cipaglucosidase alfa/miglustat − alglucosidase alfa/placebo): Week 52; for CHG to Week 52 in PROMIS-Physical Function total score, LS Mean Treatment Difference: actual time point; for PROMIS physical function outcome: overall and ERT-experienced populations
# Procedure: The test for the primary endpoint was conducted first at the 1-sided 0.025 significance level, and if significant, the ordered key secondary endpoints were similarly tested at the same significance level. The statistical significance of the key secondary endpoints was interpreted following a hierarchical testing order, each at the 1-sided alpha level of 0.025. […] Primary analyses of efficacy were performed using the mixed-effect model for repeated measures (MMRM) for 6MWD in Intent-to-treat Observed Population (ITT) that includes all available, observed data without any missing data imputation (ITT-OBS) and analysis of covariance (ANCOVA) for all other endpoints in the Intent-to-Treat-Last Observation Carried Forward (ITT-LOCF) Population. A nonparametric randomization based ANCOVA was specified as the first sensitivity analysis for 6MWD and FVC. […] For the purposes of data presentation in this document, 2-sided p-values are reported hereafter, except as otherwise noted.
# [2] = system: adult subjects with late-onset Pompe disease (LOPD); assay: Study ATB200-03 (PROPEL): serum creatine kinase (CK); format: in vivo, human; conditions: for CK reduction vs alglucosidase alfa: week 52
# [3] = Week 52-LOCF, ERT-experienced Population
# [4] = Week 52-LOCF, ERT-naïve Subjects excluding Subject 4005-2511
# [5] = Week 52-LOCF, ITT excluding Subject 4005-2511
substance,measurement,setting,value
"ATB200/miglustat: two-component therapy: cipaglucosidase alfa (ATB200) administered in conjunction with miglustat (AT2221), a stabilizer of cipaglucosidase alfa","LC3 II level / autophagy, western blot","Gaa KO mice; mouse, in vivo",significant decrease in levels of LC3 II
same,LAMP1-positive vesicles in muscle fibers,Gaa KO mice; vastus lateralis,led to more fibers with normalized LAMP1 level
same,LC3-positive aggregates in muscle fibers,Gaa KO mice; vs alglucosidase alfa,preferentially reduced
same,dysferlin localisation in muscle fibers,Gaa KO mice; vs alglucosidase alfa,able to restore dysferlin to the sarcolemma in a greater number of muscle fibers
same,"PROMIS-Physical Function Short Form 20a total score Absolute Value, Median","[1]; Baseline, ITT, ERT-naïve Subjects excluding Subject 4005-2511",76.00
same,"PROMIS-Physical Function Short Form 20a total score Absolute Value, Mean","[1]; Baseline, ITT, ERT-naïve Subjects excluding Subject 4005-2511, score 20 to 100, higher = less impact",74.65
same,mean (SD) change in PROMIS-Physical Function total score from baseline to Week 52,[1]; ERT-experienced Population,1.8 (7.18)
same,mean (SD) change in PROMIS-Physical Function total score from baseline to Week 52,[1]; ERT-naïve excluding Subject 4005-2511,2.5 (8.62)
same,"Change in PROMIS-Physical Function total score baseline to Week 52, LS means (SE) from ANCOVA","[1]; ITT-LOCF, ERT-naïve Subjects excluding Subject 4005-2511",1.87 (1.917)
same,"CHG to Week 52 in PROMIS-Physical Function total score, LS Mean",[1]; ITT-OBS excluding Subject 4005-2511 (overall),2.2
same,"CHG to Week 52 in PROMIS-Physical Function total score, LS Mean","[1]; ITT-OBS excluding Subject 4005-2511, ERT-naïve Subjects",2.6
same,"CHG to Week 52 in PROMIS-Physical Function total score, LS Mean","[1]; ITT-OBS, ERT-experienced Subjects",2.0
same,"PROMIS-Physical Function Short Form 20a total score Absolute Value, Mean (SD)",[1]; [3],66.19 (12.325)
same,"PROMIS-Physical Function Short Form 20a total score Absolute Value, Median",[1]; [3],66.00
same,"PROMIS-Physical Function Short Form 20a total score CHG, Mean (SD)",[1]; [3],1.76 (7.179)
same,"PROMIS-Physical Function Short Form 20a total score CHG, Median",[1]; [3],0.50
same,"PROMIS-Physical Function Short Form 20a total score Absolute Value, Mean",[1]; [4],77.15
same,"PROMIS-Physical Function Short Form 20a total score Absolute Value, Median",[1]; [4],77.50
same,"PROMIS-Physical Function Short Form 20a total score CHG (change from baseline), Mean",[1]; [4],2.50
same,"PROMIS-Physical Function Short Form 20a total score CHG (change from baseline), Median",[1]; [4],0.00
same,"PROMIS-Physical Function Short Form 20a total score Absolute Value, Mean (SD)",[1]; [5],68.80 (12.954)
same,"PROMIS-Physical Function Short Form 20a total score Absolute Value, Median",[1]; [5],68.00
same,"PROMIS-Physical Function Short Form 20a total score CHG, Mean (SD)",[1]; [5],1.94 (7.498)
same,"PROMIS-Physical Function Short Form 20a total score CHG, Median",[1]; [5],0.00
same,"PROMIS-Physical Function Short Form 20a total score CHG, LS means (SE)","[1]; ANCOVA, ITT-LOCF excluding Subject 4005-2511",1.98 (0.921)
same,"PROMIS-Physical Function Short Form 20a total score CHG, Difference of LS means (SE) (cipaglucosidase alfa/miglustat − alglucosidase alfa/placebo)","[1]; ANCOVA, ITT-LOCF excluding Subject 4005-2511, 2-sided p 0.276",1.87 (1.706)
same,"PROMIS-Physical Function Short Form 20a total score CHG, LS means (SE)","[1]; ANCOVA, ITT-LOCF, ERT-experienced Population",1.90 (1.071)
same,"PROMIS-Physical Function Short Form 20a total score CHG, Difference of LS means (SE) (cipaglucosidase alfa/miglustat − alglucosidase alfa/placebo)","[1]; ANCOVA, ITT-LOCF, ERT-experienced Population, 2-sided p 0.110",3.14 (1.948)
same,"LS Mean Treatment Difference (SE), CHG to Week 52 in PROMIS-Physical Function total score","[1]; cipaglucosidase alfa/miglustat − alglucosidase alfa/placebo, ITT-LOCF, ANCOVA, 2-sided p 0.426",1.37 (1.714)
same,"Change in PROMIS-Physical Function total score baseline to Week 52, Difference of LS means (SE) from ANCOVA","[1]; cipaglucosidase alfa/miglustat − alglucosidase alfa/placebo, ITT-LOCF, ERT-naïve Subjects excluding Subject 4005-2511",−5.09 (4.288)
same,"CHG to Week 52 in PROMIS-Physical Function total score, LS Mean Treatment Difference","[1]; cipaglucosidase alfa/miglustat − alglucosidase alfa/placebo, ITT-OBS excluding Subject 4005-2511 (overall)",2.5
same,"CHG to Week 52 in PROMIS-Physical Function total score, LS Mean Treatment Difference","[1]; cipaglucosidase alfa/miglustat − alglucosidase alfa/placebo, ITT-OBS excluding Subject 4005-2511, ERT-naïve Subjects",−3.1
same,"CHG to Week 52 in PROMIS-Physical Function total score, LS Mean Treatment Difference","[1]; cipaglucosidase alfa/miglustat − alglucosidase alfa/placebo, ITT-OBS, ERT-experienced Subjects",3.5
same,PROMIS physical function outcome,[1],PROMIS physical function numerically favored ATB200/miglustat treatment
same,PROMIS physical function outcome,[1]; listed as AT-GAA,improved numerically more than alglucosidase alfa treated patients
same,mean (SD) change in PROMIS-Physical Function total score from baseline to Week 52,[1]; overall population,1.9 (7.50)
same,mean change in CK after 52 weeks,[2]; combined study population,−22.4%
same,CK reduction vs alglucosidase alfa,[2],reductions in CK and urinary Hex4 were significantly greater with ATB200/miglustat treatment at week 52
same,CK reduction vs alglucosidase alfa,[2]; listed as AT-GAA,significantly favored AT-GAA compared to alglucosidase alfa
same,CK reduction vs alglucosidase alfa,[2]; listed as cipaglucosidase alfa/miglustat,reductions in biomarkers of muscle damage (CK) and disease substrate (Hex4) also were significantly greater with cipaglucosidase alfa/miglustat compared with alglucosidase alfa

# Reference: patent US20260041744A1, “Methods for Treating Pompe Disease” (Amicus Therapeutics, Inc., priority 2022, published 2026)
